{
  "source": "paper PMC9704079",
  "about": "“Enhancement of the anticancer effect of atorvastatin-loaded nanoemulsions by improving oral absorption via multivalent intestinal transporter-targeting lipids” (Drug Delivery, 2022)",
  "key": {"4T1 cell tumor": {"test_system": "4T1 cell tumor", "experiment": "In vivo tumor growth inhibition in 4T1 cell tumor-bearing mice", "set-up": "species or system BALB/c mice", "method": "To evaluate the in vivo antitumor efficacy of oral ATV-NEs, 1 × 10^6 4T1 cells dispersed in 100 μL of PBS (pH 7.4) were subcutaneously inoculated into the left flanks of BALB/c mice. […] To assess tumor growth suppression, the tumor size and body weight of the mice in all groups were measured every 3 days after treatment. The tumor volume in each mouse was calculated as (width)^2 × length × 0.52. After 21 days of treatment, mice were sacrificed and tumor masses were measured."}, "4T1 cells [1]": {"test_system": "4T1 cells", "experiment": "In vitro 4T1 cell invasion assay", "assay_type": "cell-based, murine", "settings": "100 µg/mL ATV, 24 h", "method": "(§1) The in vitro inhibition of 4T1 cell invasion and migration by ATV-NEs was assessed by Cultrex® 24-well basement membrane extract cell invasion assays (Trevigen, Inc., Gaithersburg, MD, USA). Briefly, the membrane insert in each well was uniformly coated with 100 µL of 0.5× basement membrane extract and incubated for 24 h at 37 °C. Separately, uncoated wells were used for cell migration assays. Next, each coated well was washed using 1× buffer. For invasion assays, the cells in Roswell Park Memorial Institute medium with 0.5% FBS were seeded into each apical chamber at a density of 1 × 10^6 cells/well. For cell migration assays, the same number of cells was seeded in the uncoated apical compartment. Subsequently, 500 µL of Roswell Park Memorial Institute medium containing 10% FBS were loaded into the basal compartment to serve as a chemoattractant; the cells were then cultured at 37 °C. After incubation for 24 h, both apical and basal compartments were washed with 1× buffer and the basal chamber was filled with 500 µL of cell dissociation solution (calcein-AM); the cells were incubated for 1 h at 37 °C. Finally, the dissolved calcein-AM concentration was measured with a fluorescence reader at an excitation wavelength of 485 nm and emission wavelength of 520 nm."}, "[2]": {"test_system": "MCF-7 (human breast adenocarcinoma) cells", "assay_type": "cell-based", "settings": "24 h", "method": "(§2) After incubation for 1 h, the absorbance at 450 nm was measured and the percentage of viable cells was calculated by comparison with the absorbance of untreated cells (100% viability)."}, "[3]": {"test_system": "4T1 (murine stage IV breast cancer) cells", "assay_type": "cell-based", "settings": "mouse, 24 h", "method": "as §2"}, "4T1 cells [4]": {"test_system": "4T1 cells", "experiment": "In vitro 4T1 cell adhesion to ECM components", "assay_type": "cell-based, murine", "settings": "100 µg/mL ATV, 1.5 h; fibronectin, collagen I, collagen IV, laminin I, fibrinogen", "method": "After incubation for 1.5 h at 37 °C, the cells were washed with PBS (pH 7.4) and stained by incubation for 10 min with the dye included in the kit. Then, each well was gently washed five times with 500 µL of sterilized water; 200 µL of extraction solution were added to each well, and the cells were incubated for 10 min in an orbital shaker. Finally, change in color was measured with a plate reader at 560 nm; inhibition of adhesion in the drug-treated cells was evaluated relative to inhibition in the untreated cells (control)."}, "4T1 cells [5]": {"test_system": "4T1 cells", "experiment": "In vitro 4T1 cell migration assay", "assay_type": "cell-based, murine", "settings": "Mus musculus, 4T1, 24 h; read-out: Inhibition of 4T1 cell migration compared with untreated controls", "method": "as §1"}},
  "data": [
    {"smiles": "CC(C)c1c(C(=O)Nc2ccccc2)c(-c2ccccc2)c(-c2ccc(F)cc2)n1CC[C@@H](O)C[C@@H](O)CC(=O)O", "note": "[ATV in 10% DMF, Atorvastatin]", "values": [
      {"measurement": "Tumor growth compared to untreated controls (in words)", "setting": "4T1 cell tumor; daily oral, 40 mg/kg ATV in 10% DMF, 21 days", "value": "did not inhibit tumor growth"}
    ]},
    {"smiles": "CC(C)c1c(C(=O)Nc2ccccc2)c(-c2ccccc2)c(-c2ccc(F)cc2)n1CC[C@@H](O)C[C@@H](O)CC(=O)O", "note": "[ATV-IP, Atorvastatin]", "values": [
      {"measurement": "Tumor growth inhibition compared to controls", "setting": "4T1 cell tumor; once-daily IP, 5 mg/kg ATV in 10% DMF, 21 days", "value": 30.4, "unit": "%"},
      {"measurement": "Tumor growth inhibition compared to controls", "setting": "4T1 cell tumor; once-daily IP, 10 mg/kg ATV in 10% DMF, 21 days", "value": 52.5, "unit": "%"},
      {"measurement": "Isolated tumor mass reduction compared to controls", "setting": "4T1 cell tumor; once-daily IP, 10 mg/kg ATV in 10% DMF, day 21", "value": 73.8, "unit": "%"}
    ]},
    {"smiles": "CC(C)c1c(C(=O)Nc2ccccc2)c(-c2ccccc2)c(-c2ccc(F)cc2)n1CC[C@@H](O)C[C@@H](O)CC(=O)O", "note": "[ATV in 0.5% DMSO, Atorvastatin]", "values": [
      {"measurement": "Decrease in 4T1 cell invasion compared with untreated controls", "setting": "4T1 cells [1]", "value": 31.9, "unit": "%"},
      {"measurement": "Concentration at which cytotoxic effects were exhibited", "setting": "[2]", "value": "> 100", "unit": "µg/mL ATV"},
      {"measurement": "Concentration at which cytotoxic effects were exhibited", "setting": "[3]", "value": "> 100", "unit": "µg/mL ATV"},
      {"measurement": "4T1 cell adhesion to ECM components (in words)", "setting": "4T1 cells [4]", "value": "significantly decreased adhesion"},
      {"measurement": "inhibition at 100 µg/mL", "setting": "4T1 cells [5]", "value": 20.3, "unit": "%"}
    ]}
  ]
}
